Measurements: patent US8188090B2, “Naphthylacetic acids” (Hoffman-La Roche Inc., priority 2008, dated 2012)

Tests used:
human CRTH2 [1] = target: T1, human CRTH2 (Homo sapiens, UniProt Q9Y5Y4); assay: Human CRTH2 Receptor Binding Assay (whole cell, [3H]ramatroban); set-up: expressed in transfected cells; host or cells: CHO-K1; conditions: whole CHO-K1 cells stably expressing human CRTH2 and G-alpha16; 20 nM [3H]ramatroban; 1 hour, room temperature
T1 sequence (Q9Y5Y4 1-395): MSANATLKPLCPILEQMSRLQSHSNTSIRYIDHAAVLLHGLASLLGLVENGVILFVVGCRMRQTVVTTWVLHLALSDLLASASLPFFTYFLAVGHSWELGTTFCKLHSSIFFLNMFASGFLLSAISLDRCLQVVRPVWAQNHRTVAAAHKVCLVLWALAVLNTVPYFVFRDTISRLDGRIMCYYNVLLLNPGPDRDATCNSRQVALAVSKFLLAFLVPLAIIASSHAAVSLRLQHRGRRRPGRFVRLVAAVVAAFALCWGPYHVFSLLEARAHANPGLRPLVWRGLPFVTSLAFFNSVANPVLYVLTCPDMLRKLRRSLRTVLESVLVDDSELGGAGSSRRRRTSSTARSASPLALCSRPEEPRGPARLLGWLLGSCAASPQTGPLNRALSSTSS

human CRTH2 [2] = target: T1, human CRTH2; assay: Calcium Flux Assay Using Fluorometric Imaging Plate Reader (FLIPR); assay type: cell-based; set-up: expressed in transfected cells; host or cells: CHO-K1 (previously transfected with G-alpha 16); conditions: CHO-K1 cells transfected with G-alpha 16 and human CRTH2 receptor; inhibition of ligand (DK-PGD2) induced Ca2+ flux
Description: Calcium Flux Assay Using Fluorometric Imaging Plate Reader Cell Culture Conditions:
CHO-K1 cells previously transfected with G-alpha 16 were subsequently transfected with the human CRTH2 receptor and the neomycin resistance gene. Following selection in 800 μg/mL G418 (geneticin), individual clones were assayed for their receptor expression based on staining with an anti human CRTH2 IgG, followed by assaying for their response to 13,14-dihydro-15-keto Prostaglandin D2 (DK-PDG2) (ligand) in the Ca^2+Flux assay. Positive clones were then cloned by limiting dilution cloning. The transfected cells were cultured in Ham's F-12 medium supplemented with 10% fetal bovine serum, 2 mM glutamine, 100 U/mL penicillin/100 μg/mL streptomycin, 200 μg/mL hygromycin B, and 800 μg/mL G418 (geneticin). Cells were harvested with trypsin-EDTA (trypsin-ethylenediaminetetraacetic acid) and counted using ViaCount® reagent (from Guava Technologies, Inc. which contains two DNA-binding dyes that enable the reagent user to distinguish between viable and non-viable cells). The cell suspension volume was adjusted to 2.5×10^5 cells/mL with complete growth media. Aliquots of 50 μL were dispensed into BD Falcon™ 384 well black/clear microplates (from BD Biosciences, a division of Becton, Dickinson and Company) and the microplates were placed in a 37° C. CO2 incubator overnight. The following day, the microplates were used in the assay.
Loading Buffer containing dye (from the FLIPR® Calcium 3 Assay Kit from Molecular Devices, a division of MDS Analytical Technologies and MDS Inc.) was prepared by dissolving the contents of one bottle into 200 mL Hank's Balanced Salt Solution containing 20 mM HEPES (4-(2-hydroxyethyl)-1-piperazineethanesulfonic acid) and 2.5 mM probenecid. Growth media was removed from the cell plates and 25 μL of Hank's Balanced Salt Solution (HBSS) containing 20 mM HEPES, 0.05% BSA and 2.5 mM probenecid was added to each well followed by 25 μL of diluted dye using a Multidrop dispenser. The plates were then incubated for 1 hour at 37° C.
During the incubation, test compound plates were prepared by adding 90 μL of HBSS/20 mM HEPES/0.005% BSA buffer to the 2 μL of serial diluted compounds. To prepare serial diluted compounds, 20 mM stocks of compounds were dissolved in 100% DMSO. The compound dilution plate was set up as follows: well #1 received 5 μL of compound plus 10 μL of DMSO. Wells 2-10 received 10 μL of DMSO. 5 μL was mixed and transferred from well #1 into well #2. 1:3 serial dilutions were continued out 10 steps. […]
After incubation, both the cell and “assay plate” plates were brought to the fluorometric imaging plate reader (FLIPR®) and 20 μL of the diluted compounds were transferred to the cell plates by the FLIPR®. […] During the assay, fluorescence readings were taken simultaneously from all 384 wells of the cell plate every 1.5 seconds. Five readings were taken to establish a stable baseline, then 20 μL of sample was rapidly (30 μL/sec) and simultaneously added to each well of the cell plate. The fluorescence was continuously monitored before, during and after sample addition for a total elapsed time of 100 seconds. Responses (increase in peak fluorescence) in each well following agonist addition were determined. The initial fluorescence reading from each well, prior to ligand stimulation, was used as a zero baseline value for the data from that well. The responses were expressed as % inhibition of the buffer control. […]

| Compound | IC50 (human CRTH2 [1]) [nM] | IC50 (human CRTH2 [2]) [nM] |
| --- | --- | --- |
| CC(=O)N1CCC(Oc2cc(CC(=O)O)cc3ccc(F)cc23)CC1 [Example 5-1, [4-(1-Acetyl-piperidin-4-yloxy)-6-fluoro-naphthalen-2-yl]-acetic acid] | 163 | > 5000 |
| CCS(=O)(=O)N1CCC(Oc2cc(CC(=O)O)cc3ccc(F)cc23)CC1 [Example 4-2, [4-(1-Ethanesulfonyl-piperidin-4-yloxy)-6-fluoro-naphthalen-2-yl]-acetic acid] | 20.3 | > 5000 |
| COc1ccccc1N1CCN(C(=O)c2c(C)c(CC(=O)O)cc3ccc(F)cc23)CC1 [Example 2-8, {6-Fluoro-4-[4-(2-methoxy-phenyl)-piperazine-1-carbonyl]-3-methyl-naphthalen-2-yl}-acetic acid] | 458 | > 5000 |
| CCc1ccccc1N1CCN(C(=O)c2c(C)c(CC(=O)O)cc3ccc(F)cc23)CC1 [Example 2-10, {4-[4-(2-Ethyl-phenyl)-piperazine-1-carbonyl]-6-fluoro-3-methyl-naphthalen-2-yl}-acetic acid] | 450 | > 5000 |
| Cc1c(CC(=O)O)cc2ccc(F)cc2c1C(=O)N1CCN(c2ccccc2C(F)(F)F)CC1 [Example 2-15, {6-Fluoro-3-methyl-4-[4-(2-trifluoromethyl-phenyl)-piperazine-1-carbonyl]-naphthalen-2-yl}-acetic acid] | 253 | > 5000 |
